From PMC6554660 (Frontiers in Pharmacology, 2019)
Entries after “also recorded” stand apart in the source; their conditions may differ. Where a SMILES comes first, the peptide text is derived from it. Bridges are numbered along the chain shown (N, C = ends).

Key:
rat α3β2 nAChR = rat α3β2 nAChR (Rattus norvegicus, UniProt P04757+P12390); assay: cell-based
rat α7 nAChR = rat α7 nAChR (Rattus norvegicus, UniProt Q05941); assay: cell-based; type: cell-based
[1] = in vivo; cited from earlier work

rat α7 nAChR, sequence (Q05941 23-502 limits assumed): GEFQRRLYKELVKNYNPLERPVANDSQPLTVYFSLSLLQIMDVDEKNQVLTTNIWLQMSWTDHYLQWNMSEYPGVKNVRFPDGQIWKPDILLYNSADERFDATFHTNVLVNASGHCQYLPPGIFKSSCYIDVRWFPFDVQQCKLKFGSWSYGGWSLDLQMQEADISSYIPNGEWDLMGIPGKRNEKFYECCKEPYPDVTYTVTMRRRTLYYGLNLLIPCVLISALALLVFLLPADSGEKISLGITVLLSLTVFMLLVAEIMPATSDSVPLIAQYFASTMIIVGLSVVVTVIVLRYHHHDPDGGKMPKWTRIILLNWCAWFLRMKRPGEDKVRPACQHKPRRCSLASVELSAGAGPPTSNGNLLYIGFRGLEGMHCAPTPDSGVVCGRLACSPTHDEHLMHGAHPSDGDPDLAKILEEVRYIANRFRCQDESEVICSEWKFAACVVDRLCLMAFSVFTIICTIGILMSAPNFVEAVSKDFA
rat α3β2 nAChR, sequence (P04757 26-499 limits assumed): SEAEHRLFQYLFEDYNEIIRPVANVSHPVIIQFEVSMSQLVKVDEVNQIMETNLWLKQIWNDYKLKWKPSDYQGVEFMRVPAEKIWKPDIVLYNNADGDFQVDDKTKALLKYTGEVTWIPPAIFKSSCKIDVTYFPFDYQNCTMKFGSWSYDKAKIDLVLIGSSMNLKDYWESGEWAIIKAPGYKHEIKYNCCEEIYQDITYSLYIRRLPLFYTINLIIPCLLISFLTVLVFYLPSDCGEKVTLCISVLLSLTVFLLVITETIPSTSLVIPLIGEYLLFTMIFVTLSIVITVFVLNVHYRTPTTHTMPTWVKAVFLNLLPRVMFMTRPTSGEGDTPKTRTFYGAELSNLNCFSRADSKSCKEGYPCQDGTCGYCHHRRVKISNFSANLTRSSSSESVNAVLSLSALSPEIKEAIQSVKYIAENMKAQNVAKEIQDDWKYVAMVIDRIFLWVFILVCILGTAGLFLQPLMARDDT
rat α3β2 nAChR, sequence (P12390 25-500 limits assumed): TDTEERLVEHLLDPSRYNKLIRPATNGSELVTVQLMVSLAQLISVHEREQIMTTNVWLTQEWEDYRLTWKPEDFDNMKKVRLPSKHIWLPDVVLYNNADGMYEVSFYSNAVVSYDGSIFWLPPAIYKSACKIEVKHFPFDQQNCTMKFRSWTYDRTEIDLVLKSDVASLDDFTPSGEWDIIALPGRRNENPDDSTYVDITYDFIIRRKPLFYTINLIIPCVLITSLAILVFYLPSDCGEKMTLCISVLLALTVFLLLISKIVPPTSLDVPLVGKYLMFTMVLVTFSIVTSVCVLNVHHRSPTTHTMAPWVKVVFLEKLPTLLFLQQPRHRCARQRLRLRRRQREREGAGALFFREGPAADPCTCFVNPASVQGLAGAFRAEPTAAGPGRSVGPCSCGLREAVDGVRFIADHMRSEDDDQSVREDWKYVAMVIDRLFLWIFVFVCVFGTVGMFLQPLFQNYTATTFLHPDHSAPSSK

CC[C@H](C)[C@@H]1NC(=O)[C@@H]2CSSC[C@H](NC(=O)[C@@H](NC(=O)CN)CSSC[C@@H](C(=O)O)NC(=O)[C@H](CC(C)C)NC(=O)[C@H](CC(=O)O)NC(=O)[C@@H]3CCCN3C(=O)[C@H](CC(N)=O)NC(=O)[C@H](CC(N)=O)NC(=O)[C@H](C)NC1=O)C(=O)N[C@@H](CO)C(=O)N[C@@H](CC(N)=O)C(=O)N1CCC[C@H]1C(=O)N1CCC[C@H]1C(=O)N2 [Recombinant [R5N]TxIA] (H-GCCSNPPCIANNPDLC-OH; disulfide 2-16, 3-8)
IC50 (rat α3β2 nAChR): 1830 nM
nH (Hill coefficient) (rat α3β2 nAChR): −1.36
activity at α7 nAChR (in words) (rat α7 nAChR): but not when an asparagine residue was introduced in this position

CC[C@H](C)[C@@H]1NC(=O)[C@@H]2CSSC[C@H](NC(=O)CN)C(=O)N[C@@H](CSSC[C@@H](C(N)=O)NC(=O)[C@H](CC(C)C)NC(=O)[C@H](CC(=O)O)NC(=O)[C@@H]3CCCN3C(=O)[C@H](CC(N)=O)NC(=O)[C@H](CC(N)=O)NC(=O)[C@H](C)NC1=O)C(=O)N[C@@H](CO)C(=O)N[C@@H](CCCNC(=N)N)C(=O)N1CCC[C@H]1C(=O)N1CCC[C@H]1C(=O)N2 [Synthetic TxIA, reference compound]
IC50 (rat α3β2 nAChR): 4.6 nM
IC50 (rat α7 nAChR): 1810 nM

Vc1.1
analgesic properties [1]: potent analgesic properties

CC[C@H](C)[C@@H]1NC(=O)[C@@H]2CSSC[C@H](NC(=O)[C@@H](NC(=O)CN)CSSC[C@@H](C(=O)O)NC(=O)[C@H](CC(C)C)NC(=O)[C@H](CC(=O)O)NC(=O)[C@@H]3CCCN3C(=O)[C@H](CC(N)=O)NC(=O)[C@H](CC(N)=O)NC(=O)[C@H](C)NC1=O)C(=O)N[C@@H](CO)C(=O)N[C@@H](CC(=O)O)C(=O)N1CCC[C@H]1C(=O)N1CCC[C@H]1C(=O)N2 [Recombinant [R5D]TxIA] (H-GCCSDPPCIANNPDLC-OH; disulfide 2-16, 3-8)
IC50 (rat α3β2 nAChR): 3540 nM
nH (Hill coefficient) (rat α3β2 nAChR): −1.38
IC50 (rat α7 nAChR): 2910 nM
activity at α7 nAChR (in words) (rat α7 nAChR): almost completely reversed; also recorded: could rescue the activity at the α7 nAChR at a similar level to that of globular TxIA
nH (Hill coefficient) (rat α7 nAChR): −1.24

CC[C@H](C)[C@@H]1NC(=O)[C@@H]2CSSC[C@H](NC(=O)[C@@H](NC(=O)CN)CSSC[C@@H](C(=O)O)NC(=O)[C@H](CC(C)C)NC(=O)[C@H](CC(=O)O)NC(=O)[C@@H]3CCCN3C(=O)[C@H](CC(N)=O)NC(=O)[C@H](CC(N)=O)NC(=O)[C@H](C)NC1=O)C(=O)N[C@@H](CO)C(=O)N[C@@H](CCCNC(=N)N)C(=O)N1CCC[C@H]1C(=O)N1CCC[C@H]1C(=O)N2 [Recombinant TxIA]
nH (Hill coefficient) (rat α3β2 nAChR): −1.54
